Data reported in patent US20050192247A1, “Method of treating cancers” (priority 2004, published 2005).
Structures can show the parent of a compound that is named as a salt.

Key:
[1] = system: A549 human lung cancer cells; test: A549 human lung cancer xenograft mouse model; assay type: in vivo; details: for tumor growth during treatment: eight treatments
Procedure: The anti-tumor activity of β-lapachone is examined using a human lung cancer xenograft model. Briefly, athymic female nude mice (Ncr) are inoculated subcutaneously with 4×10^6 A549 human lung cancer cells, and the tumors are allowed to grow to approximately 50 mm^3 in size. The animals are randomized into five groups of seven animals per group, and treated intraperitoneally every three days with one of the following five regimens: β-lapachone at 40 mg/kg in 40% hydroxypropy-β-cyclodextran (“HPBCD”); β-lapachone at 60 mg/kg in 40% HPBCD; gemcitabine (GEMZAR®) at 120 mg/kg in PBS; β-lapachone (40 mg/kg)+gemcitabine (120 mg/kg); or vehicle control (40% HPBCD). The combination therapy group receives treatments with β-lapachone and gemcitabine at the indicated concentrations on the same day, every three days. Mice receive a total of eight treatments. Mean tumor volume is analyzed; data points in FIG. 2 represent the arithmetic mean+/−SEM of five tumors.

[2] = system: CEM T lymphoblastoid cells; details: cited from earlier work
[3] = system: Human pancreatic cancer Panc-1 cells; test: Panc-1 human pancreatic cancer xenograft mouse model; assay type: in vivo; details: post-treatment observation 19 days
Procedure: Human pancreatic cancer Panc-1 cells (2×10^6) are implanted subcutaneously into male athymic nude (Ncr) mice. Following establishment of tumor nodules (about 50 mm^3), the animals are randomized into four groups of five animals per group. The animals are treated intraperitoneally with one of four treatments: β-lapachone at 40 mg/kg in 40% hydroxypropy-β-cyclodextran; gemcitabine (Gemzar®) at 120 mg/kg (in PBS); β-lapachone (40 mg/kg)+gemcitabine (120 mg/kg); or vehicle control. The mice receive a total of ten treatments, administered every three days (on study day 5, 8, 11, 14, 17, 20, 31, 34, 37, and 40). The combination therapy group receives β-lapachone and gemcitabine on the same day in each treatment. Following treatment, the animals are observed for an additional 19 days. Tumors are measured throughout the treatment and post-treatment periods.

[4] = system: human breast cancer cells; details: cited from earlier work
[5] = system: human ovarian cancer, human prostate cancer, human breast cancer, human multiple myeloma; details: cited from earlier work
[6] = system: ovary, colon, and pancreatic cancer cells; details: through induction of caspase; cited from earlier work
[7] = cited from earlier work
[8] = in vivo; cited from earlier work

SMILES | tumor growth during treatment ([1]; gemcitabine 120 mg/kg intraperitoneally every three days) | internucleosomal DNA fragmentation [2] | tumor re-growth after termination of treatment ([3]; gemcitabine 120 mg/kg) | type of cell death induced [4] | tumor growth during treatment ([1]; β-lapachone 60 mg/kg intraperitoneally every three days) | retardation of tumor growth, 60 mg/kg compared with 40 mg/kg ([1]; β-lapachone 60 mg/kg versus 40 mg/kg) | anti-tumor effect as a single agent [5] | tumor re-growth after termination of treatment ([3]; β-lapachone 40 mg/kg) | type of cell death induced [6] | water solubility [7] | tolerability [8]
Nc1ccn([C@@H]2O[C@H](CO)[C@@H](O)C2(F)F)c(=O)n1 [gemcitabine, 2′-deoxy-2′,2′-difluorocytidine monohydrochloride (β-isomer), reference compound] | retarded tumor growth | induces internucleosomal DNA fragmentation | 400% |  |  |  |  |  |  |  | 
CC1(C)CCC2=C(O1)c1ccccc1C(=O)C2=O [β-lapachone, 3,4-dihydro-2,2-dimethyl-2H-naphtho[1,2-b]pyran-5,6-dione] |  |  |  | induces necrosis | retarded tumor growth | more effective at retarding tumor growth | decrease the number of tumors, reduce tumor size, or increase survival time | no significant re-growth | apoptosis | non-water soluble | generally well-tolerated
